Results published in ChEMBL document CHEMBL1149979, “1,3-Dithian-2-ylidene and thiazolidin-2-ylidene derivatives as a novel class of antimycotic agents” (1997).
Converted amounts (≈) assume the structure as drawn.

Experiments:
[1] = tested on: Candida albicans; assay: In vitro minimum inhibitory concentration for antifungal activity against human pathogenic fungi Candida albicans; format: functional
[2] = tested on: Cryptococcus neoformans; assay: In vitro minimum inhibitory concentration for antifungal activity against human pathogenic fungi Cryptococcus neoformans; format: functional
[3] = tested on: Aspergillus fumigatus; assay: In vitro minimum inhibitory concentration for antifungal activity against human pathogenic fungi Aspergillus fumigatus; format: functional
[4] = tested on: Trichophyton benhamiae; assay: In vitro minimum inhibitory concentration for antifungal activity against human pathogenic fungi Trichophyton mentagrophytes; format: functional, Arthroderma benhamiae
[5] = tested on: Sporothrix schenckii; assay: In vitro minimum inhibitory concentration for antifungal activity against human pathogenic fungi Sporothrix schenck ii; format: functional

Row | Compound | MIC [1] [µg/mL] | MIC [2] [µg/mL] | MIC [3] [µg/mL] | MIC [4] [µg/mL] | MIC [5] [µg/mL]
1 | O=C(C(=C1SCCCS1)n1ccnc1)c1ccc(Cl)cc1 | > 100 | > 100 | 12.5 (≈ 37.1 µM) | 12.5 (≈ 37.1 µM) | > 100
2 | CCOC(=O)C(=C1SCCCS1)n1ccnc1 | > 100 | > 100 | > 100 | > 100 | > 100
3 | CC1=CS/C(=C(/C#N)n2ccnc2)S1 | > 100 | > 100 | 12.5 (≈ 56.5 µM) | 12.5 (≈ 56.5 µM) | > 100
4 | CCOC(=O)/C(=C1/SCCC(C)S1)n1ccnc1 (stereo not given) | > 100 | > 100 | 50 (≈ 176 µM) | 25 (≈ 87.9 µM) | > 100
5 | O=C(/C(=C1/SCCN1c1ccccc1)n1ccnc1)c1ccc(Cl)cc1 | > 100 | > 100 | > 100 | > 100 | > 100
6 | CCN1CCS/C1=C(/C#N)n1ccnc1 | > 100 | > 100 | 25 (≈ 113 µM) | 25 (≈ 113 µM) | > 100
7 | O=C(/C(=C1/SCCN1c1ccc(Cl)cc1)n1ccnc1)c1ccc(Cl)cc1 | > 100 | > 100 | > 100 | > 100 | > 100
8 | CC(=O)N1CCN(c2ccc(OC[C@H]3CO[C@](Cn4ccnc4)(c4ccc(Cl)cc4Cl)O3)cc2)CC1 [KETOCONAZOLE] | 0.1 (≈ 0.188 µM) | 0.3 (≈ 0.565 µM) | 0.7 (≈ 1.32 µM) | 25 (≈ 47 µM) | 0.1 (≈ 0.188 µM)

More lines, now with the values ahead:

Row | MIC [1] [µg/mL] | MIC [2] [µg/mL] | MIC [3] [µg/mL] | MIC [4] [µg/mL] | MIC [5] [µg/mL] | Compound
9 | > 100 | > 100 | 25 (≈ 107 µM) | 50 (≈ 213 µM) | > 100 | CCN1/C(=C(\C#N)n2ccnc2)SCC1C (stereo not given)
10 | > 100 | > 100 | 50 (≈ 174 µM) | > 100 | > 100 | CC1CCS/C(=C(/C#N)n2cnc3ccccc32)S1 (stereo not given)
11 | 100 (≈ 448 µM) | > 100 | 3.1 (≈ 13.9 µM) | 25 (≈ 112 µM) | > 100 | N#CC(=C1SCCCS1)n1ccnc1
12 | 50 (≈ 211 µM) | > 100 | 0.19 (≈ 0.8 µM) | 3.12 (≈ 13.1 µM) | > 100 | CC1CCS/C(=C(/C#N)n2ccnc2)S1 (stereo not given)
